Measured values taken from patent US8889638B2, “Stimulus-triggered prodrugs” (The Regents of the University of California, priority 2010, dated 2014).
One block for each molecule: values may come before it.

How the values were obtained:
[1] = target: T1, MMP-9 (catalytic domain, human, recombinant) (Homo sapiens, UniProt P14780); assay: MMP-9 fluorescence-based inhibition assay with and without β-glucosidase; type: biochemical; details: for inhibition of MMP-9 when exposed to β-glucosidase: 1 mM for 2, 4 mM for 4, 125 μM for 6; for inhibition of MMP-9 in the absence of β-glucosidase: 1 mM for 2, 4 mM for 4, 125 μM for 6, 16 μM for 8
T1 construct: MMP-9 (catalytic domain, human, recombinant); purchased BIOMOL International
T1 sequence (P14780 107-444 limits assumed): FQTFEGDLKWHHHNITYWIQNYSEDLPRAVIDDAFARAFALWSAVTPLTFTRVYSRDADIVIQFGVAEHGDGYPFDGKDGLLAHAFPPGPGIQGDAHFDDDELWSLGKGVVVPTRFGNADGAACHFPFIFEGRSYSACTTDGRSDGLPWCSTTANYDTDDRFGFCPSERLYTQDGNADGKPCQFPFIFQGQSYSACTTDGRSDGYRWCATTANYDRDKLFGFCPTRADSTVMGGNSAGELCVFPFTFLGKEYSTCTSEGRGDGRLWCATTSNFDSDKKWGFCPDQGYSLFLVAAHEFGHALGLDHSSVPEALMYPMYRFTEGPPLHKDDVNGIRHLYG
Description: MMP-9 (catalytic domain, human, recombinant), MMP-8 (catalytic domain, human, recombinant), and the assay kit were purchased from BIOMOL International. The assays were carried out according to the procedure provided with the kit. MMP activity was measured in 96-well plates using a Bio-Tek Flx 800 fluorescent plate reader. The ZBGs and their protected analogs were dissolved in DMSO and diluted in HEPES buffer (50 mM, pH 7.5) to a concentration of 10 mM for 1-2, 40 mM for 3-4, and 1.25 mM for 5-6. Each well contained 20 μL, of MMP-9 (0.45 U/mL), inhibitor (10 μL, of 1-6), 5 μL, of β-glucosidase (1 U/μL) when used, and buffer for a total volume of 99 μL. These were incubated for 1 h at 37° C. […] The reaction was initiated by the addition of 1 μL (400 μM) of the fluorescent substrate (Mca-Pro-Leu-Gly-Leu-Dpa-Ala-Arg-NH2 where Mca=(7-methoxycoumarin-4-yl)-acetyl and Dpa=N-3-(2,4-dinitrophenyl)-L-α-β-diaminopropionyl)) and kinetic activity was measured every minute for 30 min with excitation and emission wavelengths at 335 nm and 405 nm, respectively. Enzyme activity with inhibitor was calculated with respect to the control experiment (no inhibitor present). Measurements were performed in duplicate in two independent experiments.
For Cmpds 7 and 8, 1 mL sample in HEPES buffer at a concentration of 1 mM was incubated at 37° C. with 250 U of β-glucosidase (1 U/μL) for 4 h giving a final concentration of 0.8 mM of the inhibitor. After 4 h, a 200 μL aliquot was collected and filtered through a microcentrifuge filter. UV-Vis absorption spectroscopy was to verify that the concentration of 1,2-HOPO-2 was 0.71±0.2 mM in each of the samples using the extinction coefficient for 1,2-HOPO-2 (7) calculated at 346 nm (4,279.3±372 M-1 cm-1). Each well was made up with 20 μL of MMP-9 (0.45 U/mL), inhibitor (2 μL, for 7 and 8), and buffer for a total volume of 99 μL. These were incubated for 30 min at 37° C. For MMP-8 inhibition assays, each of the samples was diluted to 1 μM in HEPES buffer and 15 μL of each were added to 20 μL of MMP-8 (0.092 U/mL) and buffer for a total of 99 μL. The reaction was initiated by the addition of 1 μL (400 μM) of the fluorescent substrate and kinetic activity was measured every minute for 30 min with excitation and emission wavelengths at 335 nm and 405 nm, respectively. Enzyme activity with inhibitor was calculated with respect to the control experiment (no inhibitor present). A control sample was also performed, in which an aliquot of 250 U of β-glucosidase (1 U/μL) with 1 mL of HEPES buffer was incubated for 4 h at 37° C., filtered through a microcentrifuge filter, and evaluated in the MMP assay to confirm that no inhibition is observed with β-glucosidase. Measurements were performed in duplicate in two independent experiments. […]

[2] = Cleavage of boronic ester/acid protected compounds by H2O2 (UV-Vis, rate constant, HPLC); type: physicochemical; details: for k, pseudo first-order rate constants calculated with an excess of H2O2: 50 μM in HEPES buffer pH 7.5, room temperature
Description: (§1) Absorption spectra of compounds B1-B16 were taken on a Perkin-Elmer Lambda 25 UV-visible spectrophotometer. To a 1.0 mL solution at 0.05 mM concentration in HEPES buffer (50 mM, pH 7.5) was added H2O2 (10 uL (0.09 M) in HEPES for compounds B1-B12 and B14-B16, 10 uL (0.9 M) in HEPES for compound B3, and 2.8 uL (0.09 M) in HEPES for compound B13). Spectra were monitored over time at room temperature. Absorption spectra of compounds B17-B21 were taken on a Perkin-Elmer Lambda 25 UV-visible spectrophotometer. To a 1.0 mL solution at 0.05 mM concentration of compounds 1-7 in HEPES buffer (50 mM, pH=7.5) was added H2O2 (10 uL, 0.09 M in HEPES) or KO2 (0.10 mM) with catalase (5 U). Hydrolytic stability was measured by monitoring samples of B19-B21 in HEPES buffer for a 24 h time period. Spectra were monitored over time at room temperature.
The pseudo-first order rate constant was calculated by monitoring the absorption spectra over time in the presence of excess hydrogen peroxide. To a 1.0 mL solution of compounds B1-B3 and B10-B14 in HEPES buffer (50 mM, pH 7.5) at 50 μM was added H2O2 to final concentrations of 150 μM, 250 μM, 500 μM, 750 μM, and 900 μM. Spectra were monitored over 15-30 min at room temperature with at least 50 spectra recorded. The change in absorption at 302 nm for B1-B3, 272 nm for B10, 312 nm for B11, 268 for B12, 306 nm for B13, and 303 nm for B14 were monitored. For compounds B1-B3 and B10-B11, the rate constant (kobs) was found from monitoring the appearance of the monitored absorption peak by plotting the linear slope of ln [(A∞−At)/(A∞)] vs. time (where A∞ is the absorbance of a 50 μM sample of the methyl salicylate for B1-B3, maltol for B10, and 1,2-HOPO for B11). For compounds B12-B14 the rate constant (kobs) was found from monitoring the disappearance of the monitored absorption peak by plotting the linear slope of ln [(A−AZBG)/(A0−AZBG)] vs. time (where AZBG is the absorbance of a 50 μM sample of the ZBG and A0 is the initial absorbance of […]).^3 The rate of conversion was determined from the slope of the line of kobs vs. [H2O2]. The pseudo-first order rate constant was calculated following literature procedure.^[15] To a 1.0 mL solution of compounds B19-B21 in HEPES buffer at 50 μM was added H2O2 to final concentrations of 150 μM, 250 μM, 500 μM, 750 μM, and 900 μM. Spectra were monitored over 15-30 min at room temperature with at least 50 spectra recorded. The change in absorption at 292 nm for B19 and 252 nm for B20 and B21 were monitored. The rate constant (kobs) was found from the linear slope of ln [(A−AZBG)/(A0−AZBG)] vs. time (where AZBG is the absorbance of a 50 μM sample of the ZBG and A0 is the initial absorbance of B19-B21). The rate of conversion was determined from the slope of the line of kobs vs. [H2O2].
Analytical HPLC was performed on a HP Series 1050 system equipped with a Vydac® C18 reverse phase column (218 TP, 250×4.6 mm, 5 μm). […] Starting with 95% A and 5% B, an […] gradient was run for 15 min to a final solvent mixture of 5% A and 95% B, which was held for 5 min before ramping back down to 95% A and 5% B in 2 min and holding for an additional 4 min. Compounds were prepared in HEPES buffer (50 mM, pH 7.5) at a concentration of 1 mM. Retention times of compounds were determined under identical HPLC conditions prior to and after reaction with H2O2. LC-MS(+) was performed on compounds B6, B15 and B16 to confirm cleavage of the boronic ester to the phenolic moiety.

[3] = Hydrolytic stability of boronic ester compounds in HEPES buffer; type: physicochemical; details: for hydrolytic stability in buffer: 4 h period
Description: as §1

[4] = Hydrolytic stability of sulfonate esters in HEPES buffer; type: physicochemical
Description: Absorption spectra of compounds were taken on a Perkin-Elmer Lambda 25 UV-Visible Spectrophotometer. To a 1.0 mL solution at 0.05 mM concentration of each compound in HEPES buffer (50 mM, pH 7.5) was added H2O2 (10 μL, 0.09M in HEPES) and absorption spectra were monitored over time at room temperature. Hydrolytic stability was measured by monitoring each sample in HEPES buffer over a 24 hour time period.

inhibition of MMP-9 when exposed to β-glucosidase [1]: complete restoration of inhibition
inhibition of MMP-9 in the absence of β-glucosidase [1]: attenuated inhibition
Structure (SMILES): Cc1occc(=O)c1OC1OC(CO)C(O)C(O)C1O [Compound 4, 2-Methyl-4H-pyran-4-one-3-β-D-glucopyranoside]

inhibition of MMP-9 when exposed to β-glucosidase [1]: complete restoration of inhibition
inhibition of MMP-9 in the absence of β-glucosidase [1]: attenuated inhibition
Structure (SMILES): Cc1occc(=S)c1OC1OC(CO)C(O)C(O)C1O [Compound 6, 2-Methyl-4H-pyran-4-thione-3-β-D-glucopyranoside]

hydrolytic stability in buffer [3]: stable
Structure (SMILES): COC(=O)c1ccccc1OCc1ccc(B2OC(C)(C)C(C)(C)O2)cc1 [Compound B1, Methyl 2-((4-(4,4,5,5-tetramethyl-1,3,2-dioxaborolan-2-yl)benzyl)oxy)benzoate]
k, pseudo first-order rate constants calculated with an excess of H2O2 [2]: 1.12 ± 0.04 M⁻¹ s⁻¹

hydrolytic stability in buffer [3]: spontaneous hydrolytic cleavage
Structure (SMILES): COC(=O)c1ccccc1OC(=O)OCc1ccc(B2OC(C)(C)C(C)(C)O2)cc1 [Compound B2, Methyl 2-((((4-(4,4,5,5-tetramethyl-1,3,2-dioxaborolan-2-yl)benzyl)oxy)carbonyl)oxy)benzoate]
k, pseudo first-order rate constants calculated with an excess of H2O2 [2]: 2.7 ± 0.1 M⁻¹ s⁻¹

hydrolysis in buffer ([3]; 24 h time period): > 50%
Structure (SMILES): Cc1occc(=O)c1OC(=O)OCc1ccc(B2OC(C)C(C)(C)O2)cc1 (stereo not drawn) [Compound B21, 2-methyl-4-oxo-4H-pyran-3-yl 4-(4,4,5-trimethyl-1,3,2-dioxaborolan-2-yl)benzyl carbonate]
rate constant of conversion with an excess of H2O2 ([2]; pseudo-first order conditions, HEPES buffer): 6.7 M⁻¹ s⁻¹

More lines, now with the values behind:

Structure (SMILES): O=c1ccccn1OC1OC(CO)C(O)C(O)C1O [Compound 2, 1-Hydroxypyridin-2(1H)-one-β-D-glucopyranoside]
inhibition of MMP-9 when exposed to β-glucosidase [1]: complete restoration of inhibition
inhibition of MMP-9 in the absence of β-glucosidase [1]: attenuated inhibition

Structure (SMILES): COC(=O)c1ccccc1B1OC(C)(C)C(C)(C)O1 [Compound B3, Methyl 2-(4,4,5,5-tetramethyl-1,3,2-dioxaborolan-2-yl)benzoate]
k, pseudo first-order rate constants calculated with an excess of H2O2 [2]: 0.031 ± 0.002 M⁻¹ s⁻¹
hydrolytic stability in buffer [3]: comparable to the ether linkage used in B1

Structure (SMILES): Cc1c(OCc2ccc(B3OC(C)(C)C(C)(C)O3)cc2)c(=O)ccn1C [Compound B12, 1,2-Dimethyl-3-((4-(4,4,5,5-tetramethyl-1,3,2-dioxaborolan-2-yl)benzyl)oxy)pyridin-4(1H)-one]
k, pseudo first-order rate constants calculated with an excess of H2O2 [2]: 3.5 ± 0.3 M⁻¹ s⁻¹

Structure (SMILES): CC1(C)OB(c2ccc(COc3cccccc3=O)cc2)OC1(C)C [Compound B13, 2-((4-(4,4,5,5-Tetramethyl-1,3,2-dioxaborolan-2-yl)benzyl)oxy)cyclohepta-2,4,6-trienone]
k, pseudo first-order rate constants calculated with an excess of H2O2 [2]: 2.9 ± 0.1 M⁻¹ s⁻¹

Structure (SMILES): CC1(C)OB(c2ccc(COc3cccc4cccnc34)cc2)OC1(C)C [Compound B14, 8-((4-(4,4,5,5-Tetramethyl-1,3,2-dioxaborolan-2-yl)benzyl)oxy)quinoline]
k, pseudo first-order rate constants calculated with an excess of H2O2 [2]: 4.1 ± 0.2 M⁻¹ s⁻¹

Structure (SMILES): O=c1ccccn1OS(=O)(=O)c1ccc([N+](=O)[O-])cc1[N+](=O)[O-] [PZBG-1d, 2-Oxopyridin-1(2H)-yl 2,4-dinitrobenzenesulfonate]
stability in aqueous buffer in the absence of H2O2 [4]: rapid hydrolytic cleavage
